Laboratory results published in patent US7407961B2, “Pyrazine derivatives and pharmaceutical use thereof” (Astellas Pharma Inc., priority 2003, dated 2008).

Tests used:
human A1 receptor = molecular target: T1, human A1 receptor (Homo sapiens, UniProt P30542); test: Adenosine antagonistic activity, radioligand binding with [3H]DPCPX; settings: [3H]DPCPX 4.5 nM
T1 sequence (P30542 1-326): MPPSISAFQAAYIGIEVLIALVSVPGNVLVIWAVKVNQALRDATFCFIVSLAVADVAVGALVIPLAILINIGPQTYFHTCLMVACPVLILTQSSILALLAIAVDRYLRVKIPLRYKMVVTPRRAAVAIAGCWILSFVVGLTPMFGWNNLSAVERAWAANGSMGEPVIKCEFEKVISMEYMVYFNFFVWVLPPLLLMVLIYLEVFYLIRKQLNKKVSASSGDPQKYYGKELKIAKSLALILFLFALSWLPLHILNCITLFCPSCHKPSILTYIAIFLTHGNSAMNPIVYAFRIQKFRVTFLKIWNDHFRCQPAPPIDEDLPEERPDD
Experimental: (§1) Test 1: Adenosine Antagonistic Activity
(§2) The adenosine antagonistic activity [Ki(nM)] of the test compound was examined by radioligand binding techniques using 8-cyclopentyl-1,3-dipropylxanthine, [dipropyl-2,3-^3H(N)] ([^3H]DPCPX, 4.5 nM) for human A1 receptor and [^3H]CGS 21680 (20 nM) for human A2a receptor.

human A2a receptor = human A2a receptor (Homo sapiens, UniProt P29274); test: Adenosine antagonistic activity, radioligand binding with [3H]CGS 21680; settings: [3H]CGS 21680 20 nM
Sequence of human A2a receptor (P29274 whole entry): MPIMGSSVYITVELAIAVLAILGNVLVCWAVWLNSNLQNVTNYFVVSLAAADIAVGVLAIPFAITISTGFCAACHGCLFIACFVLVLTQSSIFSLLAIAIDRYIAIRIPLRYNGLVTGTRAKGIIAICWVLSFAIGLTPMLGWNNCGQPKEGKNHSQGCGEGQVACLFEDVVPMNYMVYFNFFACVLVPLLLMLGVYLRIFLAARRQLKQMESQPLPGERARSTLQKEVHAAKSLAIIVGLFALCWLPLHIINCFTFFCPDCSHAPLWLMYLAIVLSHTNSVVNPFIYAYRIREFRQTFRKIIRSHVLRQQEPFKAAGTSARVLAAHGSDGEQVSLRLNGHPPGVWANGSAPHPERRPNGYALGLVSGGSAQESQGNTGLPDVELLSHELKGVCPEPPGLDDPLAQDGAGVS
Experimental: as §1, §2

ddY mice = test: Anticatalepsy activity in mouse (haloperidol-induced catalepsy, bar test); type: in vivo; settings: 3.2 mg/kg orally, ddY mice n=7; haloperidol 0.32 mg/kg i.p. 30 min later; measured 30 min after injection
Experimental: Test 2: Anticatalepsy Activity in Mouse [I] Test Method
The test compound (3.2 mg/kg) was administered orally with ddY mice (n=7). Then, haloperidol (0.32 mg/kg) was injected intraperitoneally 30 min. after the administration of the compound. Thirty min after the injection, the cataleptic responses of mice were measured. The forelimbs of each mouse were placed on a 3 cm high, 3 mm wide horizontal bar, and the duration of cataleptic posture was measured for up to 30 sec.

| SMILES | Ki (human A1 receptor) [nM] | Ki (human A2a receptor) [nM] | melting point [°C] | Manifestation rate of Catalepsy (number of mouse) (ddY mice) |
| --- | --- | --- | --- | --- |
| CC(C)n1cc(-c2ncc(N)nc2-c2cccs2)ccc1=O [Example 115, 5-[5-Amino-3-(2-thienyl)-2-pyrazinyl]-1-isopropyl-2(1H)-pyridone] | 4.89 | 0.84 | – | 0/7 |
| CC(C)n1cc(-c2ncc(N)nc2-c2cc(F)cc(F)c2)ccc1=O [Example 129, 5-[5-Amino-3-(3,5-difluorophenyl)-2-pyrazinyl]-1-isopropyl-2(1H)-pyridone] | 10.7 | 3.9 | – | 0/7 |
| CC(C)n1cc(-c2nc(C#N)c(N)nc2-c2ccc(F)c(F)c2)ccc1=O [Example 39, 3-Amino-5-(3,4-difluorophenyl)-6-(1-isopropyl-6-oxo-1,6-dihydro-3-pyridyl)-2-pyrazinecarbonitrile] | 24 | 6.52 | – | 0/7 |
| CCn1cc(-c2nc(C(N)=O)c(N)nc2-c2ccccc2)ccc1=O [Example 4, 3-Amino-6-(1-ethyl-6-oxo-1,6-dihydro-3-pyridyl)-5-phenyl-2-pyrazinecarboxamide] | 5.09 | 2.34 | > 250 | 0/7 |
| Cn1cc(-c2nc(C#N)c(N)nc2-c2ccccc2)ccc1=O [Example 11, 3-amino-6-(1-methyl-6-oxo-1,6-dihydro-3-pyridyl)-5-phenyl-2-pyrazinecarbonitrile] | 22.5 | 2.35 | – | 0/7 |
| COc1ccc(-c2nc(N)c(C(N)=O)nc2-c2ccc(=O)n(C(C)C)c2)cc1 (hydrate or solvate) [Example 25, 3-Amino-6-(1-isopropyl-6-oxo-1,6-dihydro-3-pyridyl)-5-(4-methoxyphenyl)-2-pyrazinecarboxamide] | – | – | 243.9 | – |

Now from value to compound, other results behind:

| Ki (human A1 receptor) [nM] | Ki (human A2a receptor) [nM] | melting point [°C] | SMILES | Manifestation rate of Catalepsy (number of mouse) (ddY mice) |
| --- | --- | --- | --- | --- |
| 1.78 | 0.54 | – | CC(C)n1cc(-c2nc(-c3ccco3)c(N)nc2-c2ccccc2)ccc1=O [Example 144, 5-[5-Amino-6-(2-furyl)-3-phenyl-2-pyrazinyl]-1-isopropyl-2(1H)-pyridone] | 0/7 |
| 0.61 | 0.23 | – | CC(C)n1cc(-c2nc(Br)c(N)nc2-c2ccccc2)ccc1=O [Example 141, 5-(5-amino-6-bromo-3-phenyl-2-pyrazinyl)-1-isopropyl-2(1H)-pyridone] | 0/7 |
| 1.57 | 0.32 | – | CC(C)n1cc(-c2nc(Oc3ccccc3)c(N)nc2-c2ccccc2)ccc1=O [Example 151, 5-(5-amino-6-phenoxy-3-phenyl-2-pyrazinyl)-1-isopropyl-2(1H)-pyridone] | 0/7 |
| 6.07 | 1.69 | – | CC(C)n1cc(-c2nc(C(=O)NCCO)c(N)nc2-c2ccccc2)ccc1=O [Example 49, 3-Amino-N-(2-hydroxyethyl)-6-(1-isopropyl-6-oxo-1,6-dihydro-3-pyridyl)-5-phenyl-2-pyrazinecarboxamide] | 1/7 |
| 5.25 | 1.49 | – | CC(C)n1cc(-c2nc(C(=O)NCC#N)c(N)nc2-c2ccccc2)ccc1=O [Example 46, 3-Amino-N-(cyanomethyl)-6-(1-isopropyl-6-oxo-1,6-dihydro-3-pyridyl)-5-phenyl-2-pyrazinecarboxamide] | 0/7 |
| 22.3 | 7.52 | – | CC(C)n1cc(-c2nc(CO)c(N)nc2-c2ccccc2)ccc1=O [Example 47, 5-[5-amino-6-(hydroxymethyl)-3-phenyl-2-pyrazinyl]-1-isopropyl-2(1H)-pyridone] | 1/7 |
| 0.93 | 0.91 | – | CC(C)n1cc(-c2nc(Br)c(N)nc2-c2ccccc2)cc(Br)c1=O [Example 53, 5-(5-amino-6-bromo-3-phenyl-2-pyrazinyl)-3-bromo-1-isopropyl-2(1H)-pyridone] | 0/7 |
